Source: patent US20210205271A1 (The Johns Hopkins University, priority 2018, published 2021)
Read-outs that look alike come from different tables or passages of the source.

How the values were obtained:
[1] = rats; cited from earlier work
[2] = mouse, in vivo, iv, 1.5 mg/kg
Method: (§1) All pharmacokinetic studies in mice were conducted according to protocols approved by the Animal Care and Use Committee at Johns Hopkins University. Male CD-1 mice between 25 and 30 g were obtained from Harlan, and maintained on a 12-h light-dark cycle with ad libitum access to food and water. […] The mice were sacrificed at specified time points post drug administration. For collection of plasma and brain tissue, animals were euthanized with CO2, and blood samples were collected in heparinized microtubes by cardiac puncture. Tissues were dissected and immediately flash frozen (−80° C.). Blood samples were spun at 2,000×g for 15 min, plasma was removed and stored at −80° C. until LC/MS analysis. Prior to extraction, frozen samples were thawed on ice. The calibration curves were developed using plasma and brain from naïve animals as a matrix. Plasma samples (50 μL), were processed using a single liquid extraction method by addition of 3004 of acetonitrile as with internal standard (losartan: 0.5 μM), followed by vortex mixing for 30 sec and then centrifugation at 10,000×g for 10 min at 4° C. For brain tissue, homogenized samples were vortex mixed and centrifuged as above. A 104 aliquot of supernatant was diluted with 35 µL of acetonitrile and mixed with 50 μL water containing 0.5 μM losartan as internal standard. Extracts were centrifuged at 10,000×g for 10 min at 4° C. Supernatants were transferred to 2504 polypropylene autosampler vials sealed with a Teflon cap. A volume of 34 was injected onto the ultra-performance liquid chromatography (UPLC) instrument for quantitative analysis by LC-MS/MS.

[3] = mouse, in vivo, po, 30 mg/kg
Method: Brain concentrations of MBZ were also measured in tandem.
as §1

[4] = MBZ plasma exposure in male beagle dogs after oral administration; assay type: in vivo, dog; conditions: PO […] MBZ equivalent
[5] = dog, in vivo, iv, 0.3 mg/kg
Method: Using a co-solvent system comprising of 1% DMSO and 10% CremophorEL formulation, however, MBZ was successfully administered via IV at a dose of 1.5 mg/kg in mice (FIG. 3A) and a dose of 0.3 mg/kg in dog (FIG. 3B).

AUC0-t [2] | Cmax [2] | Tmax [2] | Vd [2] | time of Cmax post-dose [2] | AUC0-t (MBZ, brain) [3] | AUC0-t (MBZ, plasma) [3] | % F (oral bioavailability of MBZ) [4] | Tmax (MBZ, plasma) [4] | AUC0-t [5] | Vd [5] | Molecule | fold improvement in plasma exposure versus equimolar oral MBZ [1]
 |  |  |  |  |  |  |  |  |  |  | COC(=O)NC(=S)Nc1cc(C(=O)c2ccccc2)ccc1N [4-amino-3-(3′-methoxycarbonyl-2′-thioureido)benzophonone] | 2 fold
2.7 µM·h | 5.3 µM | 4.98 min | 1.4 L/kg | 5 min | 13.1 ± 4.2 nmol·h/g | 12.9 µM·h | 11% | 2 h | 0.9 µM·h | 1.3 L/kg | Mebendazole [MBZ-C] | 
